Results taken from patent US8440646B1 (priority 2006, dated 2013).
Values after ≈ are worked out from the molar mass of the structure shown.

Legend:
E. faecium 494 = assay: microbe, parasite or virus in culture; type: cell-based; conditions: Enterococcus faecium
E. faecalis 29212 = assay: microbe, parasite or virus in culture; type: cell-based; conditions: Enterococcus faecalis
S. aureus MRSA5 = assay: microbe, parasite or virus in culture; type: cell-based; conditions: Staphylococcus aureus
S. pneumoniae 700905 = assay: microbe, parasite or virus in culture; type: cell-based; conditions: Streptococcus pneumoniae
S. pneumoniae 157E [1] = assay: animal or person; type: in vivo, mice; conditions: Streptococcus pneumoniae, 157E, in Mus musculus, 48 h, read-out: % survival; for responders at 5 mg/kg: sc
[2] = test system: Protein synthesis of S. aureus RN450; assay: microbe, parasite or virus in culture; type: cell-based
S. aureus RN4250 = assay: microbe, parasite or virus in culture; type: cell-based; conditions: Staphylococcus aureus, RN4250
[3] = test system: Peptidoglycan synthesis of S. aureus RN450; assay: microbe, parasite or virus in culture; type: cell-based; conditions: Staphylococcus aureus
S. aureus RN450 = assay: microbe, parasite or virus in culture; type: cell-based; conditions: Staphylococcus aureus
S. pneumoniae 157E [4] = assay: microbe, parasite or virus in culture; type: cell-based; conditions: Streptococcus pneumoniae

| SMILES | MIC (E. faecium 494) [µg/mL] | MIC (E. faecalis 29212) [µg/mL] | MIC (S. aureus MRSA5) [µg/mL] | MIC (S. pneumoniae 700905) [µg/mL] | MIC (S. aureus RN4250) [µg/mL] | MIC (S. aureus RN450) [µg/mL] | other results |
| --- | --- | --- | --- | --- | --- | --- | --- |
| CO/N=C(\C)c1cc(CNCC(C)(C)C)c(O)c2c1C[C@H]1C[C@H]3[C@H](N(C)C)C(O)=C(C(N)=O)C(=O)[C@@]3(O)C(O)=C1C2=O [E] | 1 (≈ 1.71 µM) | 0.25 (≈ 0.428 µM) | 0.25 (≈ 0.428 µM) | 0.06 (≈ 0.103 µM) |  |  | responders at 10 mg/kg (S. pneumoniae 157E [1]; po): 0%; responders at 5 mg/kg (S. pneumoniae 157E [1]): 40% |
| CN(C)[C@@H]1C(O)=C(C(N)=O)C(=O)[C@@]2(O)C(O)=C3C(=O)c4c(O)ccc(B5OC(C)(C)C(C)(C)O5)c4C[C@H]3C[C@@H]12 [F] | 1 (≈ 1.85 µM) | 0.5 (≈ 0.925 µM) | 0.5 (≈ 0.925 µM) | 0.25 (≈ 0.463 µM) |  |  | responders at 50 mg/kg (S. pneumoniae 157E [1]; po): 100%; responders at 5 mg/kg (S. pneumoniae 157E [1]): 100% |
| C=CCN(C)Cc1cc(C(C)C)c2c(c1O)C(=O)C1=C(O)[C@]3(O)C(=O)C(C(N)=O)=C(O)[C@@H](N(C)C)[C@@H]3C[C@@H]1C2 [G] | 1 (≈ 1.85 µM) | 0.5 (≈ 0.927 µM) | 0.5 (≈ 0.927 µM) | 0.06 (≈ 0.111 µM) |  |  |  |
| CN(C)[C@@H]1C(O)=C(C(N)=O)C(=O)[C@@]2(O)C(O)=C3C(=O)c4c(O)c(CNCCC(F)(F)F)cc(-c5ncccn5)c4C[C@H]3C[C@@H]12 [J] | 1 (≈ 1.62 µM) | 0.25 (≈ 0.405 µM) | 0.5 (≈ 0.81 µM) | 0.06 (≈ 0.0972 µM) |  |  |  |
| CN(Cc1ccccc1F)Cc1cc(N(C)C)c2c(c1O)C(=O)C1=C(O)[C@]3(O)C(=O)C(C(N)=O)=C(O)[C@@H](N(C)C)[C@@H]3C[C@@H]1C2 [K] | 1 (≈ 1.64 µM) | 1 (≈ 1.64 µM) | 0.5 (≈ 0.821 µM) | 0.25 (≈ 0.411 µM) |  |  |  |
| CN(CCC(F)(F)F)Cc1cc(N(C)C)c2c(c1O)C(=O)C1=C(O)[C@]3(O)C(=O)C(C(N)=O)=C(O)[C@@H](N(C)C)[C@@H]3C[C@@H]1C2 [L] | 1 (≈ 1.68 µM) | 1 (≈ 1.68 µM) | 0.5 (≈ 0.838 µM) | 0.75 (≈ 1.26 µM) |  |  |  |
| CCN(CCCC(F)(F)F)Cc1cc(N(C)C)c2c(c1O)C(=O)C1=C(O)[C@]3(O)C(=O)C(C(N)=O)=C(O)[C@@H](N(C)C)[C@@H]3C[C@@H]1C2 [N] | 0.5 (≈ 0.8 µM) | 1 (≈ 1.6 µM) | 1 (≈ 1.6 µM) | 0.13 (≈ 0.208 µM) |  |  |  |
| CN(C)[C@@H]1C(O)=C(C(N)=O)C(=O)[C@@]2(O)C(O)=C3C(=O)c4c(O)ccc(C(=O)CN5CCCCC5)c4C[C@H]3C[C@@H]12 [O] |  |  |  |  | 0.06 (≈ 0.111 µM) | 0.06 (≈ 0.111 µM) | macromolecular synthesis profile in words [2]: profile similar to class I compounds; IC50 ([2]; Staphylococcus aureus, read-out: Protein synthesis IC50): 0.33 µg/mL (≈ 0.612 µM); IC90 ([2]; Staphylococcus aureus, read-out: Protein synthesis IC90): 0.92 µg/mL (≈ 1.71 µM); IC50 ([3]; read-out: Peptidoglycan synthesis IC50): > 32 µg/mL; IC90 ([3]; read-out: Peptidoglycan synthesis IC90): > 32 µg/mL |
| CN(C)[C@@H]1C(O)=C(C(N)=O)C(=O)[C@@]2(O)C(O)=C3C(=O)c4c(O)ccc(-c5cncc(CN6CCCCC6)c5)c4C[C@H]3C[C@@H]12 [P] |  |  |  |  | 0.06 (≈ 0.102 µM) | 0.06 (≈ 0.102 µM) |  |
| CC(C)N(C)Cc1ccc(-c2ccc(O)c3c2C[C@H]2C[C@H]4[C@H](N(C)C)C(O)=C(C(N)=O)C(=O)[C@@]4(O)C(O)=C2C3=O)o1 [Q] |  |  |  |  | 0.06 (≈ 0.106 µM) | 0.06 (≈ 0.106 µM) |  |
| C=CCN(C)Cc1cncc(-c2ccc(O)c3c2C[C@H]2C[C@H]4[C@@H](N(C)C)C(O)=C(C(N)=O)C(=O)[C@@]4(O)C(O)=C2C3=O)c1 [T] |  |  |  |  | 0.06 (≈ 0.104 µM) | 0.06 (≈ 0.104 µM) |  |
| CN(C)[C@@H]1C(O)=C(C(N)=O)C(=O)[C@@]2(O)C(O)=C3C(=O)c4c(O)ccc(CN5CCC(F)CC5)c4C[C@H]3C[C@@H]12 [U] |  |  |  |  | 0.06 (≈ 0.113 µM) | 0.06 (≈ 0.113 µM) |  |
| CC(C)NCc1ccc(-c2ccc(O)c3c2C[C@H]2C[C@H]4[C@H](N(C)C)C(O)=C(C(N)=O)C(=O)[C@@]4(O)C(O)=C2C3=O)cc1 [W] |  |  |  |  | 0.06 (≈ 0.107 µM) | 0.06 (≈ 0.107 µM) |  |
| COc1ccc(CN(C)C)c(-c2ccc(O)c3c2C[C@H]2C[C@H]4[C@H](N(C)C)C(O)=C(C(N)=O)C(=O)[C@@]4(O)C(O)=C2C3=O)c1 [X] |  |  |  |  | 0.06 (≈ 0.104 µM) | 0.06 (≈ 0.104 µM) |  |
| COCCNCc1ccc(-c2ccc(O)c3c2C[C@H]2C[C@H]4[C@H](N(C)C)C(O)=C(C(N)=O)C(=O)[C@@]4(O)C(O)=C2C3=O)cc1 [Y] |  |  |  |  | 0.06 (≈ 0.104 µM) | 0.06 (≈ 0.104 µM) |  |
| CN(C)[C@@H]1C(O)=C(C(N)=O)C(=O)[C@@]2(O)C(O)=C3C(=O)c4c(O)ccc(C#Cc5ccccn5)c4C[C@H]3C[C@@H]12 [Z] |  |  | 0.5 (≈ 0.97 µM) |  |  | 0.13 (≈ 0.252 µM) | MIC (S. pneumoniae 157E [4]): 0.06 µg/mL (≈ 0.116 µM) |
